# In publication PMC6381024, “Probing Anti-inflammatory Properties Independent of NF-κB Through Conformational Constraint of Peptide-Based Interleukin-1 Receptor Biased Ligands” (Frontiers in Chemistry, 2019):
# Tests used:
# [1] = test system: retinal microglia; assay: Retinal microglial activation and density (Iba-1 staining) in the OIR model; type: in vivo; conditions: OIR rat pups, 2 mg/kg/day i.p.; for Effect on microglial activation / morphology: Iba-1 immunohistochemistry
# Excerpt: On P5, litters were transferred to a controlled hyperoxic environment (Biospherix OxyCycler A84XOV) and maintained at 80 ± 1% O2, which is used to induce vaso-obliteration of the retinal vasculature. At this timepoint, the vasculature is immature and particularly susceptible to […] insults resulting in vaso-obliteration, a defining characteristic of the early stage of retinopathies in premature infants (Garner and Ashton, [1971]). Control litters were not exposed to hyperoxia and were kept in standard conditions with room air (21% O2). To control for the effects of hyperoxia on the lactation of the dams, dams of hyperoxic litters were switched with dams of control litters on P8.
# In litters exposed to hyperoxia, pups were randomized to receive phosphate-buffered saline (PBS) vehicle, 2 mg/kg/day of peptides 1, 5, or 6 or 3 mg/kg/day of Kineret from P5 to P10. These doses were determined from our previous study (Rivera et al., [2013]) and administered in twice-daily intra-peritoneal injections titrated to 20 μL per injection with 28-gauge insulin syringes. A total of 6–8 pups were used for each treatment group.
# Retinas were treated at room temperature for 1 h with a blocking solution consisting of 1% bovine serum albumin (BSA), 1% normal goat serum, 0.1% Triton X-100 and 0.05% Tween-20 in PBS. The retinas were then double-labeled overnight at 4°C with gentle shaking in an antibody solution consisting of 1 mM CaCl2, 1% Triton X-100, 1% TRITC-conjugated lectin cell endothelial marker from Bandeiraea simplicifolia (Sigma-Aldrich, St Louis, MO) and a 1:500 dilution of rabbit anti-ionized calcium-binding adapter molecule (Iba)-1 antibody (Wako Chemicals USA) in PBS. The retinas were then washed thrice with PBS and incubated with a secondary antibody solution consisting of 1% BSA, 0.1% Triton X-100, 0.05% Tween-20 and 1:500 Alexa-594-conjugated donkey anti-rabbit IgG (ThermoFisher Scientific, Rockford, IL) in PBS for 2 h at room temperature. Retinas were washed thrice with PBS and then flat-mounted onto glass slides with coverslips and Fluoro-Gel mounting medium (Electron Microscopy Sciences, Hatfield, PA).
# For assessment of vaso-obliteration, retinas were imaged using an epifluorescence microscope at 10X magnification (Zeiss AxioImager Z2) and version 4.8 of the AxioVision software. Images were captured and stitched together using the software's MosaiX feature. Iba-1 staining was assessed with the same microscope at 20X magnification, and a total of 4 fields per retina were imaged halfway between the optic nerve and the edge of the retina.
# Representative images of Iba-1 staining were taken using a laser scanning confocal microscope (Olympus IX81 with Fluoview FV1000 Scanhead) with the Fluoview Software at 30X magnification.
# The FIJI software was used to the quantify the area of vaso-obliteration in each retina, expressed as a percentage of the area of the whole retina. The number of Iba-1-positive cells was counted using the cell counter plug-in in FIJI, and the average of cell counts in 4 fields per retina was calculated.
# Figure 11 The effects of peptides 1, 5, and 6 on retinal microglial activation and density. Retinas were obtained for immunohistochemistry from rat pups treated with the OIR protocol, and incubated with rabbit anti-iba-1 antibody, followed by donkey anti-rabbit antibody conjugated to Alexa 594. (A) Representative confocal images of retinal microglia at 30X magnification: scale bar 100 μm. (B) Epifluorescence microscopy images at 20 × magnification of retinal microglial density quantified using ImageJ: 4 images per retina were taken at a distance halfway between the optic nerve and the peripheral edge of the retina; n = 5–7 for peptide 1, 5, and 6, and Kineret; n = 8–10 for normoxia and vehicle; ^*p < 0.05, ^****p < 0.0001 relative to the vehicle group. Treatment groups that are not labeled with asterisks are statistically non-significant compared to the vehicle group.
# [2] = test system: thymocyte TF-1 proliferation; conditions: ref Jamieson et al., 2009; Boutard et al., 2011; cited from earlier work
# Excerpt: Conformational restriction of natural peptides has been used to identify active geometry and to enhance therapeutic potential by mitigating issues such as low oral availability and poor metabolic stability (Carney et al., [2014]; Rubin and Qvit, [2016]; Lubell, [2017]). Since pioneering studies by Freidinger and Veber, the application of Agl residues has proven effective for constraining the backbone sequence to favor β-turn geometry in various peptides (Freidinger et al., [1980], [1982]; Yu et al., [1988]; Zhang et al., [1996]; Aube, [1999]; Perdih and Kikelj, [2006]; Valle et al., [2009]). I ...
Substance,Effect on microglial activation / morphology [1],"Inhibition of IL-1β-induced thymocyte TF-1 proliferation, compared to peptide 1 [2]",Reduction of microglial density ([1]; Iba-1-positive cell counts)
"H-D-Arg-D-Tyr-(3R,4S)-Hgl-D-Val-D-Glu-D-Leu-D-Ala-NH2 [[(3R,4S)-Hgl^3]-1]",prevented partially the activation of microglia,–,–
"H-D-Arg-D-Tyr-(3S,4R)-Hgl-D-Val-D-Glu-D-Leu-D-Ala-NH2 [[(3S,4R)-Hgl^3]-1]",prevented partially the activation of microglia,–,–
H-D-Arg-D-Tyr-(R)-Agl-D-Val-D-Glu-D-Leu-D-Ala-NH2 [[(3R)-Agl^3]-1],no appreciable effect on microglial morphology,significantly diminished activity,–
H-D-Arg-D-Tyr-(S)-Agl-D-Val-D-Glu-D-Leu-D-Ala-NH2 [[(3S)-Agl^3]-1],no appreciable effect on microglial morphology,–,< 20%
H-D-Arg-D-Tyr-D-Thr-D-Val-D-Glu-D-Leu-D-Ala-NH2 [Peptide 1],inactive and ramified,–,–
